Assay results: US20180280393A1, “METHODS AND COMPOSITIONS FOR TREATMENT OF METASTATIC AND REFRACTORY CANCERS AND TUMORS” (The Wistar Institute of Anatomy and Biology, priority 2015, published 2018)
Read-outs that look alike come from different tables or passages of the source.

Legend:
[1] = test system: A2780 ovarian cancer cells; assay: Molecular screening of compounds on A2780 cell proliferation (resazurin fluorescence); type: cell-based, human; conditions: A2780 cells cultured 3 days, N/A = ambiguous curve fits or EC50 greater than the highest concentration tested (25 μM), read-out: EC5 - A2780 ovarian cancer cells
Experimental: Cell proliferation assays—Cells were plated in 96-well plates. Compounds were added the next morning, and cell proliferation was measured 48 hrs later with the […] 96 MTS assay (Promega) according to the manufacturer's instructions. Molecular screening of compounds on A2780 cells was performed by adding compounds the morning after plating in 384-well plates and measuring proliferation 72 hrs later with resazurin fluorescence. Normalized percent inhibition (NPI) was calculated with respect to fluorescence values obtained with DMSO negative control and doxorubicin (5 μM) positive control as NPI=100%*(DMSO−compound)/(DMSO−doxorubicin). TCR ligation of human CD8 T cells
(§1) EC50 values were calculated from normalized percent inhibition data using non-linear curve fitting in PRISM software.

human T cells [2] = assay: ConA-induced activation and expansion of human T cells (high-throughput screen); type: cell-based; conditions: human T cells activated with ConA for 7 days, N/A = ambiguous curve fits or EC50 greater than the highest concentration tested (25 μM)
Experimental: T cell stimulation—For human T cell proliferation assays, peripheral blood lymphocytes were obtained by leukapheresis/elutriation and Miltenyi bead-purified and K562 cells expressing human CD32 were generated as previously described^41. […] PBMCs were labeled with CELLTRACE Violet stain (Invitrogen) according to the manufacturer's instructions and cocultured with loaded K32 cells at a 10:1 T cells:K32 ratio or activated with ConA (2 μg/ml, Sigma). Proliferation of stimulated T cells was determined 7 days later by FACS and Division Index was calculated using FlowJo software.
as §1

human T cells [3] = assay: aAPC (anti-CD3/anti-CD28)-induced human T cell proliferation, CELLTRACE; type: cell-based; conditions: 7 days
Experimental: Four plots show proliferation of CD8 cells after 7 days is shown. […] Proliferation of CD8 cells after 7 days is shown. T cell stimulation-For human T cell proliferation assays, peripheral blood lymphocytes were obtained by leukapheresis/elutriation and Miltenyi bead-purified and K562 cells expressing human CD32 were generated as previously described^41. […] were γ-irradiated (100 Gy) and loaded with anti-CD3 (500 ng/ml, clone OKT3; eBioscience) plus anti-CD28 (500 ng/ml, clone 15E8; EMD Millipore) antibodies at room temperature for 10 minutes. PBMCs were labeled with CELLTRACE Violet stain (Invitrogen) according to the manufacturer's instructions and cocultured with loaded […] cells at a 10:1 T cells:[…] ratio or activated with ConA (2 μg/ml, Sigma). Proliferation of stimulated T cells was determined 7 days later by FACS and Division Index was calculated using FlowJo software.

human T cells [4] = assay: Cytokine rescue of human T cell proliferation from MEK inhibition; type: cell-based; conditions: GDC0973 or trametinib
Experimental: Proliferation of CD8 T cells after 7 days is shown.
FIG. 2D is a graph showing that human PBMCs were activated as in FIG. 2B with the indicated compounds, BKM120=2 μM.
Reported are percentages of cells that proliferated with GDC0973 relative to vehicle treatment with the same cytokines after 7 days. Stains are not depicted.
T cell stimulation—For human T cell proliferation assays, peripheral blood lymphocytes were obtained by leukapheresis/elutriation and Miltenyi bead-purified and K562 cells expressing human CD32 were generated as previously described^41. K32 were γ-irradiated (100 Gy) and loaded with anti-CD3 (500 ng/ml, clone OKT3; eBioscience) plus anti-CD28 (500 ng/ml, clone 15E8; EMD Millipore) antibodies at room temperature for 10 minutes. PBMCs were labeled with CELLTRACE Violet stain (Invitrogen) according to the manufacturer's instructions and cocultured with loaded K32 cells at a 10:1 T cells:K32 ratio or activated with ConA (2 μg/ml, Sigma). Proliferation of stimulated T cells was determined 7 days later by FACS and Division Index was calculated using FlowJo software.

EC50 ([1]; Homo sapiens, 72 h) [nM] | EC50 (human T cells [2]; T-cell, 168 h) [nM] | Molecule | other results
 |  | CC(C)(C)c1cc(C=C(C#N)C#N)cc(Br)c1O [AG1024] | EC50 [1]: 21300 nM; EC50 (human T cells [2]): 9830 nM
19100 | 2480 | Cc1cn(-c2cc(NC(=O)c3ccc(C)c(Nc4nccc(-c5cccnc5)n4)c3)cc(C(F)(F)F)c2)cn1 [AMN107] | 
 | 422 | CN1CCN(CCOc2cc(OC3CCOCC3)c3c(Nc4c(Cl)ccc5c4OCO5)ncnc3c2)CC1 [AZD0530 (saracatinib), saracatinib] | 
 | 92.1 | CCN(CCCOc1ccc2c(Nc3cc(CC(=O)Nc4cccc(F)c4)n[nH]3)ncnc2c1)CCOP(=O)(O)O [AZD1152] | 
 | 24500 | Cn1cnc2c(F)c(Nc3ccc(Br)cc3Cl)c(C(=O)NOCCO)cc21 [AZD6244 (selumetinib), selumetinib] | 
 | 962 | Cc1cc([C@@H](C)Nc2ccccc2C(=O)O)c2nc(N3CCOCC3)cc(=O)n2c1 [AZD6482] | 
11500 | 239 | Nc1cc(C(F)(F)F)c(-c2cc(N3CCOCC3)nc(N3CCOCC3)n2)cn1 [BKM120] | proliferation of human T cells in response to aAPC coated with agonistic CD3 and CD28 antibodies (human T cells [3]): restricted the proliferation
1540 |  | CS(=O)(=O)N1CCN(Cc2cc3nc(-c4cccc5[nH]ncc45)nc(N4CCOCC4)c3s2)CC1 [GDC0941] | 
9040 | 4.35 | O=C(c1ccc(F)c(F)c1Nc1ccc(I)cc1F)N1CC(O)([C@@H]2CCCCN2)C1 [GDC0973] | proliferation of human T cells in response to aAPC coated with agonistic CD3 and CD28 antibodies (human T cells [3]): restricted the proliferation
11400 | 1280 | CC(C)(C)c1nc(-c2cccc(NS(=O)(=O)c3c(F)cccc3F)c2F)c(-c2ccnc(N)n2)s1 [GSK436 (dabrafenib), dabrafenib] | 
 |  | CCc1cc(Nc2nccc(-c3c(-c4ccc(OC)c(C(=O)Nc5c(F)cccc5F)c4)nc4ccccn34)n2)c(OC)cc1N1CCC(N2CCN(S(C)(=O)=O)CC2)CC1 [GSK1904529] | EC50 (human T cells [2]): 13900 nM
 |  | COc1ncc(-c2ccc3nccc(-c4ccnnc4)c3c2)cc1NS(=O)(=O)c1ccc(F)cc1F [GSK2126458] | EC50 [1]: 155 nM; EC50 (human T cells [2]): 0.237 nM
 |  | Cn1ncc(Cl)c1-c1cc(C(=O)N[C@H](CN)Cc2ccc(F)c(F)c2)oc1Cl [GSK2141795] | EC50 [1]: 2350 nM; EC50 (human T cells [2]): 96 nM
257 | 18.4 | CC(C)n1nc(-c2ccc3oc(N)nc3c2)c2c(N)ncnc21 [INK128] | 
3610 |  | Cc1[nH]c2ccccc2c1CCNCc1ccc(/C=C/C(=O)NO)cc1 [LBH589] | 
8480 | 3570 | Cc1c(C(=O)Nc2ccc(N3C[C@@H](C)O[C@@H](C)C3)nc2)cccc1-c1ccc(OC(F)(F)F)cc1 [LDE225] | 
 | 2930 | CN(C)C(=O)c1cc2cnc(Nc3ccc(N4CCNCC4)cn3)nc2n1C1CCCC1 [LEE011] | 

EC50 ([1]; Homo sapiens, 72 h) [nM] | EC50 (human T cells [2]; T-cell, 168 h) [nM] | Molecule | other results
24400 | 9030 | Cc1cc(-c2ncc(CC(=O)Nc3ccc(-c4cnccn4)cn3)cc2C)ccn1 [LGK974] | 
17200 | 2690 | O=c1cc(N2CCOCC2)oc2c(-c3ccccc3)cccc12 [LY294002] | 
8750 | 446 | NC1(c2ccc(-c3nc4ccn5c(=O)[nH]nc5c4cc3-c3ccccc3)cc2)CCC1 [MK2206] | 
 | 86.8 | COc1cc(Nc2ncc3c(n2)-c2ccc(Cl)cc2C(c2c(F)cccc2OC)=NC3)ccc1C(=O)O [MLN8237] | 
5880 | 311 | COc1cccc2cc(-c3nc([C@H]4CC[C@H](C(=O)O)CC4)n4ncnc(N)c34)[nH]c12 [OSI027] | 
5210 |  | CC(=O)c1c(C)c2cnc(Nc3ccc(N4CCNCC4)cn3)nc2n(C2CCCC2)c1=O [PD0332991] | 
 | 5260 | CCCS(=O)(=O)Nc1ccc(F)c(C(=O)c2c[nH]c3ncc(-c4ccc(Cl)cc4)cc23)c1F [PLX4032 (vemurafenib), vemurafenib] | 
 |  | C=CCN(/C=C1/C(=O)O[C@H](COC)[C@@]2(C)C1=C(O)C(=O)C1=C2[C@H](OC(C)=O)C[C@]2(C)C(=O)CC[C@@H]12)CC=C [PX-866] | EC50 (human T cells [2]): 1200 nM
5630 | 128 | Cn1c(Nc2ccc(C(F)(F)F)cc2)nc2cc(Oc3ccnc(-c4ncc(C(F)(F)F)[nH]4)c3)ccc21 [RAF265] | 
 | 4.03 | CO[C@H]1C[C@@H]2CC[C@@H](C)[C@@](O)(O2)C(=O)C(=O)N2CCCC[C@H]2C(=O)O[C@H]([C@H](C)C[C@@H]2CC[C@@H](O)[C@H](OC)C2)CC(=O)[C@H](C)/C=C(\C)[C@@H](O)[C@@H](OC)C(=O)[C@H](C)C[C@H](C)/C=C/C=C/C=C/1C [Rapamycin] | 
7640 | 22.2 | O=C(Nc1ccc2[nH]nc(-c3ccncc3)c2c1)[C@@H]1CCN(CC(=O)N2CCN(c3ccc(-c4ncccn4)cc3)CC2)C1 [SCH772984] | 
5830 | 72.9 | O=C(Nc1cccc(Cl)c1)Nc1ncc(CCNc2ncnc3ccsc23)s1 [SNS314] | 
 |  | COc1ccc(C2=N[C@@H](c3ccc(Cl)cc3)[C@@H](c3ccc(Cl)cc3)N2C(=O)N2CCNC(=O)C2)c(OC(C)C)c1 [nutlin-3a] | EC50 [1]: 16800 nM; EC50 (human T cells [2]): 1130 nM
1110 | 56.7 | COC1=CC(c2cc3ccccc3[nH]2)=N/C1=C\c1[nH]c(C)cc1C [obatoclax] | 
 |  | IL-21: cytokine tested for rescue of T cell expansion from MEK inhibition | rescue of T cell proliferation in the presence of the MEK inhibitors (human T cells [4]): no effect
 |  | IL-7: recombinant mouse IL-7 (Peprotech) (protein, UniProt P10168 26-154, looked up) Interleukin-7: ECHIKDKEGKAYESVLMISIDELDKMTGTDSNCPNNEPNFFRKHVCDDTKEAAFLNRAARKLKQFLKMNISEEFNVHLLTVSQGTQTLVNCTSKEEKNVKEQKKNDACFLKRLLREIKTCWNKILKGSI | rescue of T cell proliferation in the presence of the MEK inhibitors (human T cells [4]): able to rescue T cell proliferation
 |  | IL-27: cytokine tested for rescue of T cell expansion from MEK inhibition (protein, UniProt Q8NEV9 29-243; Q14213 21-229, looked up) Interleukin-27 subunit alpha: FPRPPGRPQLSLQELRREFTVSLHLARKLLSEVRGQAHRFAESHLPGVNLYLLPLGEQLPDVSLTFQAWRRLSDPERLCFISTTLQPFHALLGGLGTQGRWTNMERMQLWAMRLDLRDLQRHLRFQVLAAGFNLPEEEEEEEEEEEEERKGLLPGALGSALQGPAQVSWPQLLSTYRLLHSLELVLSRAVRELLLLSKAGHSVWPLGFPTLSPQP Interleukin-27 subunit beta: RKGPPAALTLPRVQCRASRYPIAVDCSWTLPPAPNSTSPVSFIATYRLGMAARGHSWPCLQQTPTSTSCTITDVQLFSMAPYVLNVTAVHPWGSSSSFVPFITEHIIKPDPPEGVRLSPLAERQLQVQWEPPGSWPFPEIFSLKYWIRYKRQGAARFHRVGPIEATSFILRAVRPRARYYVQVAAQDLTDYGELSDWSLPATATMSLGK | rescue of T cell proliferation in the presence of the MEK inhibitors (human T cells [4]): no effect
